# Measurements published in US10448639B2, “Fungicidal pyrazoles” (FMC CORPORATION, priority 2009, dated 2019).
# System: Puccinia recondita f. sp. tritici
# Assay: Test I: wheat leaf rust, preventive spray on wheat seedlings, visual disease rating
# Settings: wheat leaf rust, preventive; 100 = 100% disease control, 0 = no control relative to controls
row,Structure (SMILES),Test I rating (% disease control) [%]
1,COc1ccc(F)c(Nc2c(-c3ccc(F)cc3F)c(C)nn2C)c1 [compound 244],0
2,Cc1nn(C)c(Nc2ccc(F)cc2)c1-c1c(F)cccc1C(F)(F)F [compound 254],0
3,COc1cc(F)c(-c2c(C)nn(C)c2Oc2ccc(Br)c(C#N)c2)c(F)c1 [compound 258],68
4,Cc1nn(C)c(Oc2cc(F)cc(F)c2F)c1-c1c(F)cc(F)cc1F [compound 167],0
5,Cc1nn(C)c(Nc2c(F)cc(C#N)cc2F)c1-c1c(F)cccc1F [compound 301],98

# Same assay, conditions: wheat leaf rust, sprayed the day before inoculation; 100 = 100% disease control, 0 = no disease control relative to controls
row,Structure (SMILES),Test I disease control rating [%]
1,Cc1nn(C)c(Nc2ccc(Cl)cc2Cl)c1-c1c(Cl)cccc1Cl [compound 327],96
2,Cc1nn(C)c(Oc2ccc(C#N)cc2F)c1-c1c(F)cccc1Cl [compound 342],100
3,Cc1nn(C)c(Oc2c(F)cc(C#N)cc2F)c1-c1cccnc1Cl [compound 308],100
4,Cc1nn(C)c(Nc2ncc(Cl)cc2Cl)c1-c1ccccc1Cl [compound 320],99

# System: Botrytis cinerea
# Assay: Test B: tomato Botrytis, preventive spray on tomato seedlings, visual disease rating
# Settings: tomato Botrytis; 100 = 100% disease control, 0 = no control relative to controls
row,Structure (SMILES),Test B rating (% disease control) [%]
1,COc1ccc(F)c(Nc2c(-c3ccc(F)cc3F)c(C)nn2C)c1 [compound 244],82
2,Cc1nn(C)c(Nc2ccc(F)cc2)c1-c1c(F)cccc1C(F)(F)F [compound 254],100
3,COc1cc(F)c(-c2c(C)nn(C)c2Oc2ccc(Br)c(C#N)c2)c(F)c1 [compound 258],41
4,Cc1nn(C)c(Oc2cc(F)cc(F)c2F)c1-c1c(F)cc(F)cc1F [compound 167],75
5,Cc1nn(C)c(Nc2c(F)cc(C#N)cc2F)c1-c1c(F)cccc1F [compound 301],99

# Same assay, conditions: tomato Botrytis; 100 = 100% disease control, 0 = no disease control relative to controls
row,Structure (SMILES),Test B disease control rating [%]
1,Cc1nn(C)c(Nc2ccc(Cl)cc2Cl)c1-c1c(Cl)cccc1Cl [compound 327],99
2,Cc1nn(C)c(Oc2ccc(C#N)cc2F)c1-c1c(F)cccc1Cl [compound 342],100
3,Cc1nn(C)c(Oc2c(F)cc(C#N)cc2F)c1-c1cccnc1Cl [compound 308],81
4,Cc1nn(C)c(Nc2ncc(Cl)cc2Cl)c1-c1ccccc1Cl [compound 320],99

# System: Septoria tritici
# Assay: Test G: wheat leaf blotch, preventive spray on wheat seedlings, visual disease rating
# Settings: wheat leaf blotch, sprayed the day before inoculation; 100 = 100% disease control, 0 = no disease control relative to controls
row,Structure (SMILES),Test G disease control rating [%]
1,Cc1nn(C)c(Nc2ccc(Cl)cc2Cl)c1-c1c(Cl)cccc1Cl [compound 327],100
2,Cc1nn(C)c(Oc2ccc(C#N)cc2F)c1-c1c(F)cccc1Cl [compound 342],100
3,Cc1nn(C)c(Oc2c(F)cc(C#N)cc2F)c1-c1cccnc1Cl [compound 308],98
4,Cc1nn(C)c(Nc2ncc(Cl)cc2Cl)c1-c1ccccc1Cl [compound 320],100

# Same assay, conditions: wheat leaf blotch; 100 = 100% disease control, 0 = no control relative to controls
row,Structure (SMILES),Test G rating (% disease control) [%]
1,COc1ccc(F)c(Nc2c(-c3ccc(F)cc3F)c(C)nn2C)c1 [compound 244],91
2,Cc1nn(C)c(Nc2ccc(F)cc2)c1-c1c(F)cccc1C(F)(F)F [compound 254],84
3,COc1cc(F)c(-c2c(C)nn(C)c2Oc2ccc(Br)c(C#N)c2)c(F)c1 [compound 258],89
4,Cc1nn(C)c(Oc2cc(F)cc(F)c2F)c1-c1c(F)cc(F)cc1F [compound 167],0
5,Cc1nn(C)c(Nc2c(F)cc(C#N)cc2F)c1-c1c(F)cccc1F [compound 301],100

# System: Alternaria solani
# Assay: Test C: tomato early blight, preventive spray on tomato seedlings, visual disease rating
# Settings: tomato early blight; 100 = 100% disease control, 0 = no control relative to controls
row,Structure (SMILES),Test C rating (% disease control) [%]
1,COc1ccc(F)c(Nc2c(-c3ccc(F)cc3F)c(C)nn2C)c1 [compound 244],0
2,Cc1nn(C)c(Nc2ccc(F)cc2)c1-c1c(F)cccc1C(F)(F)F [compound 254],0
3,COc1cc(F)c(-c2c(C)nn(C)c2Oc2ccc(Br)c(C#N)c2)c(F)c1 [compound 258],9
4,Cc1nn(C)c(Oc2cc(F)cc(F)c2F)c1-c1c(F)cc(F)cc1F [compound 167],0
5,Cc1nn(C)c(Nc2c(F)cc(C#N)cc2F)c1-c1c(F)cccc1F [compound 301],87

# Same assay, conditions: tomato early blight; 100 = 100% disease control, 0 = no disease control relative to controls
row,Structure (SMILES),Test C disease control rating [%]
1,Cc1nn(C)c(Nc2ccc(Cl)cc2Cl)c1-c1c(Cl)cccc1Cl [compound 327],0
2,Cc1nn(C)c(Oc2ccc(C#N)cc2F)c1-c1c(F)cccc1Cl [compound 342],33
3,Cc1nn(C)c(Oc2c(F)cc(C#N)cc2F)c1-c1cccnc1Cl [compound 308],0
4,Cc1nn(C)c(Nc2ncc(Cl)cc2Cl)c1-c1ccccc1Cl [compound 320],67

# System: Erysiphe graminis f sp. tritici
# Assay: Test J: wheat powdery mildew, preventive spray on wheat seedlings, visual disease rating
# Settings: wheat powdery mildew, sprayed the day before inoculation; 100 = 100% disease control, 0 = no disease control relative to controls
row,Structure (SMILES),Test J disease control rating [%]
1,Cc1nn(C)c(Nc2ccc(Cl)cc2Cl)c1-c1c(Cl)cccc1Cl [compound 327],99
2,Cc1nn(C)c(Oc2ccc(C#N)cc2F)c1-c1c(F)cccc1Cl [compound 342],100
3,Cc1nn(C)c(Oc2c(F)cc(C#N)cc2F)c1-c1cccnc1Cl [compound 308],0
4,Cc1nn(C)c(Nc2ncc(Cl)cc2Cl)c1-c1ccccc1Cl [compound 320],98

# Same assay, conditions: wheat powdery mildew; 100 = 100% disease control, 0 = no control relative to controls
row,Structure (SMILES),Test J rating (% disease control) [%]
1,COc1ccc(F)c(Nc2c(-c3ccc(F)cc3F)c(C)nn2C)c1 [compound 244],96
2,Cc1nn(C)c(Nc2ccc(F)cc2)c1-c1c(F)cccc1C(F)(F)F [compound 254],64
3,COc1cc(F)c(-c2c(C)nn(C)c2Oc2ccc(Br)c(C#N)c2)c(F)c1 [compound 258],90
4,Cc1nn(C)c(Oc2cc(F)cc(F)c2F)c1-c1c(F)cc(F)cc1F [compound 167],0
5,Cc1nn(C)c(Nc2c(F)cc(C#N)cc2F)c1-c1c(F)cccc1F [compound 301],99

# System: Septoria nodorum
# Assay: Test F: Septoria glume blotch, preventive spray on wheat seedlings, visual disease rating
# Settings: Septoria glume blotch on wheat; 100 = 100% disease control, 0 = no disease control relative to controls
# Text: General protocol for preparing test suspensions for Tests A-J: the test compounds were first dissolved in acetone in an amount equal to 3% of the final volume and then suspended at the desired concentration (in ppm) in acetone and purified water (50/50 mix by volume) containing 250 ppm of the surfactant Trem® 014 (polyhydric alcohol esters). The resulting test suspensions were then used in Tests A-J. Spraying a 200 ppm test suspension to the point of run-off on the test plants was the equivalent of a rate of 500 g/ha. Unless otherwise indicated, the rating values indicate a 200 ppm test suspension was used. (An asterisk “*” next to the rating value indicates a 40 ppm test suspension was used.)
# The test suspension was sprayed to the point of run-off on wheat seedlings. The following day the seedlings were inoculated with a spore suspension of Septoria nodorum (the causal agent of Septoria glume blotch) and incubated in a saturated atmosphere at 24° C. for 48 h, and then moved to a growth chamber at 20° C. for 6 days, after which time visual disease ratings were made.
row,Structure (SMILES),Test F disease control rating [%]
1,Cc1nn(C)c(Nc2ccc(Cl)cc2Cl)c1-c1c(Cl)cccc1Cl [compound 327],0
2,Cc1nn(C)c(Oc2ccc(C#N)cc2F)c1-c1c(F)cccc1Cl [compound 342],99
3,Cc1nn(C)c(Oc2c(F)cc(C#N)cc2F)c1-c1cccnc1Cl [compound 308],0
4,Cc1nn(C)c(Nc2ncc(Cl)cc2Cl)c1-c1ccccc1Cl [compound 320],0

# Same assay, conditions: Septoria glume blotch; 100 = 100% disease control, 0 = no control relative to controls
row,Structure (SMILES),Test F rating (% disease control) [%]
1,COc1ccc(F)c(Nc2c(-c3ccc(F)cc3F)c(C)nn2C)c1 [compound 244],0
2,Cc1nn(C)c(Nc2ccc(F)cc2)c1-c1c(F)cccc1C(F)(F)F [compound 254],0
3,COc1cc(F)c(-c2c(C)nn(C)c2Oc2ccc(Br)c(C#N)c2)c(F)c1 [compound 258],0
4,Cc1nn(C)c(Oc2cc(F)cc(F)c2F)c1-c1c(F)cc(F)cc1F [compound 167],0
5,Cc1nn(C)c(Nc2c(F)cc(C#N)cc2F)c1-c1c(F)cccc1F [compound 301],87

# System: Puccinia recondita f. sp. tritici
# Assay: Test H: wheat leaf rust, curative spray on inoculated wheat seedlings, visual disease rating
# Settings: wheat leaf rust, curative; 100 = 100% disease control, 0 = no control relative to controls
row,Structure (SMILES),Test H rating (% disease control) [%]
1,COc1ccc(F)c(Nc2c(-c3ccc(F)cc3F)c(C)nn2C)c1 [compound 244],0
2,Cc1nn(C)c(Nc2ccc(F)cc2)c1-c1c(F)cccc1C(F)(F)F [compound 254],0
3,COc1cc(F)c(-c2c(C)nn(C)c2Oc2ccc(Br)c(C#N)c2)c(F)c1 [compound 258],0
4,Cc1nn(C)c(Oc2cc(F)cc(F)c2F)c1-c1c(F)cc(F)cc1F [compound 167],0
5,Cc1nn(C)c(Nc2c(F)cc(C#N)cc2F)c1-c1c(F)cccc1F [compound 301],0

# Same assay, conditions: wheat leaf rust, sprayed after inoculation; 100 = 100% disease control, 0 = no disease control relative to controls
row,Structure (SMILES),Test H disease control rating [%]
1,Cc1nn(C)c(Nc2ccc(Cl)cc2Cl)c1-c1c(Cl)cccc1Cl [compound 327],0
2,Cc1nn(C)c(Oc2ccc(C#N)cc2F)c1-c1c(F)cccc1Cl [compound 342],0
3,Cc1nn(C)c(Oc2c(F)cc(C#N)cc2F)c1-c1cccnc1Cl [compound 308],9
4,Cc1nn(C)c(Nc2ncc(Cl)cc2Cl)c1-c1ccccc1Cl [compound 320],0
